SMILES strings stand for the structures.

The assay has as its system Aβ42 production in rat primary neuronal culture. Briefly: Quantification of Aβ peptide in culture of neurons from rat fetus brain (Aβ ELISA). As to conditions: Primary cortical neuron, 72 h, rat primary cortical neurons (embryonic day 18 Wistar), three days after addition of the compound, Aβx-42 ELISA of medium, read-out: Aβ42 production reducing effect IC50. The format is cell-based. As to the method:
Quantification of Aβ Peptide in Culture of Neurons from Rat Fetus Brain
(1) Rat Primary Neuronal Culture
Primary neuronal cultures were prepared from the cerebral cortex of embryonic day 18 Wistar rats (Charles River Japan, Yokohama, Japan). Specifically, the embryos were aseptically removed from pregnant rats under ether anesthesia. The brain was isolated from the embryo and immersed in an ice-cold L-15 medium (Invitrogen Corp. Cat #11415-064, Carlsbad, Calif., USA, or SIGMA L1518, for example). The cerebral cortex was collected from the isolated brain under a stereoscopic microscope. The cerebral cortex fragments collected were enzymatically treated in an enzyme solution containing 0.25% trypsin (Invitrogen Corp. Cat #15050-065, Carlsbad, Calif., USA) and 0.01% DNase (Sigma D5025, St. Louis, Mo., USA) at 37° C. for 30 minutes to disperse the cells. Here, the enzymatic reaction was stopped by adding inactivated horse serum to the solution. The enzymatically treated solution was centrifuged at 1,500 rpm for five minutes to remove the supernatant. 5 to 10 ml of a medium was added to the resulting cell mass. Neurobasal medium (Invitrogen Corp. Cat #21103-049, Carlsbad, Calif., USA) supplemented with 2% B27 supplement (Invitrogen Corp. Cat #17504-044, Carlsbad, Calif., USA), 25 μM 2-mercaptoethanol (2-ME, WAKO Cat #139-06861, Osaka, Japan), 0.5 mM L-glutamine (Invitrogen Corp. Cat #25030-081, Carlsbad, Calif., USA), and Antibiotics-Antimycotics (Invitrogen Corp. Cat #15240-062, Carlsbad, Calif., USA) was used as the medium (Neurobasal/B27/2-ME). However, the above Neurobasal medium not supplemented with 2-ME (Neurobasal/B27) was used for the assay. The cells were redispersed by mild pipetting of the cell mass to which the medium was added. The cell dispersion was filtered through a 40-μm nylon mesh (Cell Strainer, Cat #35-2340, Becton Dickinson Labware, Franklin Lakes, N.J., USA) to remove the remaining cell mass, and thus a neuronal cell suspension was obtained. The neuronal cell suspension was diluted with the medium and then plated in a volume of 100 μl/well at an initial cell density of 5×10^5 cells/cm^2 in a 96-well polystyrene culture plate pre-coated with poly-L or D-lysine (Falcon Cat #35-3075, Becton Dickinson Labware, Franklin Lakes, N.J., USA coated with poly-L-lysine using the method shown below, or BIOCOAT™ cell environments Poly-D-lysine cell ware 96-well plate, Cat #35-6461, Becton Dickinson Labware, Franklin Lakes, N.J., USA). Poly-L-lysine coating was carried out as follows. 100 μg/ml of a poly-L-lysine (SIGMA P2636, St. Louis, Mo., USA) solution was aseptically prepared with a 0.15 M borate buffer (pH 8.5). 100 μl/well of the solution was added to the 96-well polystyrene culture plate and incubated at room temperature for one or more hours or at 4° C. overnight or longer. The coated 96-well polystyrene culture plate was washed with sterile water four or more times, and then dried or rinsed with, for example, sterile PBS or medium, and used for cell plating. The plated cells were cultured in the culture plate at 37° C. in 5% CO2-95% air for one day. Then, the total amount of the medium was replaced with a fresh Neurobasal™/B27/2-ME medium, and then the cells were cultured for further three days.
The drug was added to the culture plate on Day 4 of culture as follows. The total amount of the medium was removed from the wells, and 180 μl/well of Neurobasal medium not containing 2-ME and containing 2% B-27 (Neurobasal/B27) was added thereto. A solution of the test compound in dimethyl sulfoxide (hereinafter abbreviated as DMSO) was diluted with Neurobasal/B27 at 10-fold of the final concentration. 20 μl/well of the dilution was added to and sufficiently mixed with the medium. The final DMSO concentration was 1% or less. Only DMSO was added to the control group.
The cells were cultured for three days after addition of the compound, and the total amount of the medium was collected. […]
As a reminder, the IC50 is the concentration that gives 50% inhibition. As for `COc1cc(/C=C/c2nc3n(n2)CCCC3c2ccccc2C(F)(F)F)ccc1-n1cnc(C)c1` (single isomer, unassigned) [Example 311, (−)-2-{(E)-2-[3-methoxy-4-(4-methyl-1H-imidazol-1-yl)phenyl]vinyl}-8-(2-trifluoromethylphenyl)-5,6,7,8-tetrahydro-[1,2,4]triazolo[1,5-a]pyridine], the IC50 came out at 11 nM.

For the molecule `COc1cc(/C=C/c2nc3n(n2)CC[C@H]3c2ccccc2C(F)(F)F)ccc1-n1cnc(C)c1` (single isomer, unassigned) [Example 317, (−)-2-{(E)-2-[3-methoxy-4-(4-methyl-1H-imidazol-1-yl)phenyl]vinyl}-7-(2-trifluoromethylphenyl)-6,7-dihydro-5H-pyrrolo[1,2-b][1,2,4]triazole], the 50% inhibitory concentration (IC50) was 25 nM.

On to `COc1nc(/C=C/c2nc3n(n2)CCC[C@@H]3c2ccccc2C)ccc1-n1cnc(C)c1` (single isomer, unassigned) [Example 319, (−)-2-{(E)-2-[6-methoxy-5-(4-methyl-1H-imidazol-1-yl)pyridin-2-yl]vinyl}-8-(o-tolyl)-5,6,7,8-tetrahydro[1,2,4]triazolo[1,5-a]pyridine], for which the IC50 amounted to 15 nM.

Regarding `COc1nc(/C=C/c2nc3n(n2)CCC[C@@H]3c2cccc(C(F)(F)F)c2)ccc1-n1cnc(C)c1` (single isomer, unassigned) [Example 321, (−)-2-{(E)-2-[6-methoxy-5-(4-methyl-1H-imidazol-1-yl)pyridin-2-yl]vinyl}-8-(3-trifluoromethylphenyl)-5,6,7,8-tetrahydro[1,2,4]triazolo[1,5-a]pyridine], the IC50 worked out at 23 nM.

In the case of `COc1nc(/C=C/c2nc3n(n2)CCCC3c2cc(F)ccc2C(F)(F)F)ccc1-n1cnc(C)c1` (single isomer, unassigned) [Example 329, (−)-8-(5-fluoro-2-trifluoromethylphenyl)-2-{(E)-2-[6-methoxy-5-(4-methyl-1H-imidazol-1-yl)pyridin-2-yl]vinyl}-5,6,7,8-tetrahydro-[1,2,4]triazolo[1,5-a]pyridine], the 50% inhibitory concentration (IC50) stood at 17 nM.

Consider `COc1nc(/C=C/c2nc3n(n2)CCCC3c2c(F)cccc2C(F)(F)F)ccc1-n1cnc(C)c1` (single isomer, unassigned) [Example 331, (−)-8-(6-fluoro-2-trifluoromethylphenyl)-2-{(E)-2-[6-methoxy-5-(4-methyl-1H-imidazol-1-yl)pyridin-2-yl]vinyl}-5,6,7,8-tetrahydro-[1,2,4]triazolo[1,5-a]pyridine], for which the IC50 turned out to be 22 nM.

Take `COc1nc(/C=C/c2nc3n(n2)CCC[C@@H]3c2cccc(F)c2C)ccc1-n1cnc(C)c1` (single isomer, unassigned) [Example 333, (−)-8-(3-fluoro-2-methylphenyl)-2-{(E)-2-[6-methoxy-5-(4-methyl-1H-imidazol-1-yl)pyridin-2-yl]vinyl}-5,6,7,8-tetrahydro-[1,2,4]triazolo[1,5-a]pyridine]: the IC50 came out at 10 nM.

`Cc1cn(-c2ccc(/C=C/c3nc4n(n3)CCC[C@@H]4c3ccccc3C(F)(F)F)nc2OCC(F)F)cn1` (single isomer, unassigned) [Example 354, (−)-2-{(E)-2-[5-(4-methyl-1H-imidazol-1-yl)-6-(2,2-difluoroethoxy)pyridin-2-yl]vinyl}-8-(2-trifluoromethylphenyl)-5,6,7,8-tetrahydro-[1,2,4]triazolo[1,5-a]pyridine]: the 50% inhibitory concentration (IC50) amounted to 37 nM.

Consider `COc1nc(/C=C/c2nc3n(n2)CCC(C)N3c2ccccc2C(F)(F)F)ccc1-n1cnc(C)c1` (single isomer, unassigned; (+)) [Example 373, (+)-2-{(E)-2-[6-methoxy-5-(4-methyl-1H-imidazol-1-yl)pyridin-2-yl]vinyl}-5-methyl-4-(2-trifluoromethylphenyl)-4,5,6,7-tetrahydro-[1,2,4]triazolo[1,5-a]pyrimidine], for which the IC50 is 29 nM.

With `COc1cc(/C=C(\F)c2nc3n(n2)CCCC3(O)c2cc(F)c(F)c(F)c2)ccc1-n1cnc(C)c1` (single isomer, unassigned; (-)) [Example 94, (−)-2-{(Z)-1-fluoro-2-[3-methoxy-4-(4-methyl-1H-imidazol-1-yl)phenyl]vinyl}-8-(3,4,5-trifluorophenyl)-5,6,7,8-tetrahydro[1,2,4]triazolo[1,5-a]pyridin-8-ol], the IC50 amounted to 52 nM.

In the case of `COc1cc(/C=C/c2nc3n(n2)CCC3c2ccccc2)ccc1-n1cnc(C)c1` (single isomer, unassigned; (-)) [Example 141, (−)-2-{(E)-2-[3-methoxy-4-(4-methyl-1H-imidazol-1-yl)phenyl]vinyl}-7-phenyl-6,7-dihydro-5H-pyrrolo[1,2-b][1,2,4]triazole], the 50% inhibitory concentration (IC50) came to 36 nM.

Take `COc1nc(/C=C/c2nc3n(n2)CCOC3c2ccc(Cl)cc2)ccc1-n1cnc(C)c1` (single isomer, unassigned; (-)) [Example 262, (−)-8-(4-chlorophenyl)-2-{(E)-2-[6-methoxy-5-(4-methyl-1H-imidazol-1-yl)pyridin-2-yl]vinyl}-5,6-dihydro-8H-[1,2,4]triazolo[5,1-c][1,4]oxazine]: the IC50 amounted to 74 nM.

`COc1nc(/C=C/c2nc3n(n2)CCCC3c2cc(F)cc(F)c2)ccc1-n1cnc(C)c1` (single isomer, unassigned; (-)) [Example 365, (−)-8-(3,5-difluorophenyl)-2-{(E)-2-[6-methoxy-5-(4-methyl-1H-imidazol-1-yl)pyridin-2-yl]vinyl}-5,6,7,8-tetrahydro-[1,2,4]triazolo[1,5-a]pyridine]: the IC50 turned out to be 21 nM.

Regarding `COc1nc(/C=C/c2nc3n(n2)CCOC3c2ccccc2C(F)(F)F)ccc1-n1cnc(C)c1` (single isomer, unassigned; (-)) [Example 368, (−)-2-{(E)-2-[6-methoxy-5-(4-methyl-1H-imidazol-1-yl)pyridin-2-yl]vinyl}-8-(2-trifluoromethylphenyl)-5,6-dihydro-8H-[1,2,4]triazolo[5,1-c][1,4]oxazine], the IC50 worked out at 25 nM.

Consider `COc1nc(/C=C/c2nc3n(n2)CCC3c2cc(F)cc(F)c2)ccc1-n1cnc(C)c1` (single isomer, unassigned; (-)) [Example 384, (−)-7-(3,5-difluorophenyl)-2-{(E)-2-[6-methoxy-5-(4-methyl-1H-imidazol-1-yl)pyridin-2-yl]vinyl}-6,7-dihydro-5H-pyrrolo[1,2-b][1,2,4]triazole], for which the IC50 worked out at 36 nM.

For `CCCCC(O)c1ccc(C2CCCn3nc(/C=C/c4ccc(-n5cnc(C)c5)c(OC)c4)nc32)cc1` (stereo not drawn) [Example 19, 1-{4-{2-{(E)-2-[3-methoxy-4-(4-methyl-1H-imidazol-1-yl)phenyl]vinyl}-5,6,7,8-tetrahydro[1,2,4]triazolo[1,5-a]pyridin-8-yl}phenyl}pentan-1-ol], the IC50 was 43 nM.

In the case of `COc1nc(/C=C/c2nc3n(n2)CC[C@@H](C)N3c2ccc(F)cc2F)ccc1-n1cnc(C)c1` [Example 371, (R)-4-(2,4-difluorophenyl)-2-{(E)-2-[6-methoxy-5-(4-methyl-1H-imidazol-1-yl)pyridin-2-yl]vinyl}-5-methyl-4,5,6,7-tetrahydro-[1,2,4]triazolo[1,5-a]pyrimidine], the IC50 came out at 27 nM.

With `COc1nc(/C=C/c2nc3n(n2)CC[C@H]3c2ccccc2)ccc1-n1cnc(C)c1` [Example 376, (S)-2-{(E)-2-[6-methoxy-5-(4-methyl-1H-imidazol-1-yl)pyridin-2-yl]vinyl}-7-phenyl-6,7-dihydro-5H-pyrrolo[1,2-b][1,2,4]triazole], the half-maximal inhibitory concentration (IC50) stood at 28 nM.

(Values after patent publication US9453000B2, “Polycyclic compound” (EISAI R&D MANAGEMENT CO., LTD., priority 2007, dated 2016).)
